# Reference: publication PMC3947346 (Psychopharmacology, 2013)
# Columns and labels:
# male C57BL/6 J mice [1] = assay: repeated drinking-in-the-dark
# male C57BL/6 J mice [2] = assay: intermittent access to ethanol
# male C57BL/6 J mice [3] = assay: blood ethanol concentrations; assay type: in vivo; conditions: 17 mg/kg p.o.
# [4] = in vivo pharmacokinetic study, plasma; design: species or system mice; conditions: 10 mg/kg p.o.
smiles,measurement,setting,value
"O=C1CC[C@@]2(O)[C@H]3Cc4ccc(O)c5c4[C@@]2(CCN3CC2CC2)[C@H]1O5 [Naltrexone, reference compound]","DID ethanol intake (gram per kilogram), effect vs vehicle","male C57BL/6 J mice [1]; 0.1, 1, 10 mg/kg i.p., any subsequent hour (2-4 h)",no effect
same,"DID ethanol intake (gram per kilogram), effect vs vehicle","male C57BL/6 J mice [1]; 0.1, 1, 10 mg/kg i.p., first hour, all doses",significantly reduced ethanol drinking
same,Mean percent decrease of ethanol intake (ml),"male C57BL/6 J mice [1]; DID, 10 mg/kg i.p., initial hour",approximately 57%
same,"IA ethanol drinking (gram per kilogram), effect vs saline vehicle","male C57BL/6 J mice [2]; 10 mg/kg i.p., 2-h access",decreased ethanol drinking
same,Mean percent decrease of ethanol intake (ml),"male C57BL/6 J mice [2]; IA, 10 mg/kg i.p., 2 h",approximately 36%
COc1nn(-c2ccc(F)c(NC(C)=O)c2)c(=O)n(Cc2ccc(Cl)c(F)c2)c1=O [ADX71441],"BEC after 4 h IA, difference vs vehicle treatment",male C57BL/6 J mice [3],not statistically different
same,Average BEC (blood ethanol concentration),"male C57BL/6 J mice [3]; after 4 h IA access, vehicle 47.73±9.18 mg/dl",35.74 ± 5.34 mg/dL
same,"motor activity, observation",male C57BL/6 J mice [1]; 30 mg/kg p.o.,signs of mild reduction in motor activity in a few animals
same,"DID ethanol intake (gram per kilogram), effect vs vehicle","male C57BL/6 J mice [1]; 3, 10, 30 mg/kg p.o., hours 1-4, post hoc only 10 and 30 mg/kg",significantly and dose-dependently reduced
same,"Percent change from baseline, volume of ethanol (ml)","male C57BL/6 J mice [1]; DID, 3 mg/kg p.o., 1 h",−25.93±11.92%
same,"Percent change from baseline, volume of ethanol (ml)","male C57BL/6 J mice [1]; DID, 3 mg/kg p.o., 2 h",−23.12±7.29%
same,"Percent change from baseline, volume of ethanol (ml)","male C57BL/6 J mice [1]; DID, 3 mg/kg p.o., 3 h",−9.84±6.84%
same,"Percent change from baseline, volume of ethanol (ml)","male C57BL/6 J mice [1]; DID, 3 mg/kg p.o., 4 h",−4.83±8.82%
same,"Percent change from baseline, volume of ethanol (ml)","male C57BL/6 J mice [1]; DID, 10 mg/kg p.o., 1 h",−70.44±13.55 %
same,"Percent change from baseline, volume of ethanol (ml)","male C57BL/6 J mice [1]; DID, 10 mg/kg p.o., 2 h",−57.53±8.28 %
same,"Percent change from baseline, volume of ethanol (ml)","male C57BL/6 J mice [1]; DID, 10 mg/kg p.o., 3 h",−36.11±5.39 %
same,"Percent change from baseline, volume of ethanol (ml)","male C57BL/6 J mice [1]; DID, 10 mg/kg p.o., 4 h",−25.11±7.68 %
same,"Percent change from baseline, volume of ethanol (ml)","male C57BL/6 J mice [1]; DID, 30 mg/kg p.o., 1 h",−80.73±4.11 %
same,"Percent change from baseline, volume of ethanol (ml)","male C57BL/6 J mice [1]; DID, 30 mg/kg p.o., 2 h",−86.04±4.05 %
same,"Percent change from baseline, volume of ethanol (ml)","male C57BL/6 J mice [1]; DID, 30 mg/kg p.o., 3 h",−80.99±4.39 %
same,"Percent change from baseline, volume of ethanol (ml)","male C57BL/6 J mice [1]; DID, 30 mg/kg p.o., 4 h",−69.57±3.89 %
same,"Mean percent change from vehicle baseline, ethanol intake","male C57BL/6 J mice [1]; DID, highest dose (30 mg/kg p.o.), across the 4-h test",−70–80%
same,"Ethanol preference, effect","male C57BL/6 J mice [2]; IA, 3, 10, 17 mg/kg p.o., any time point",not significantly affected
same,"Percent change from baseline, volume of ethanol","male C57BL/6 J mice [2]; IA, 3 mg/kg p.o., 2 h",−3.92±12.96%
same,"Percent change from baseline, volume of ethanol","male C57BL/6 J mice [2]; IA, 3 mg/kg p.o., 4 h",−8.21±7.51%
same,"Percent change from baseline, volume of ethanol","male C57BL/6 J mice [2]; IA, 3 mg/kg p.o., 24 h",0.31±6.16%
same,"Percent change from baseline, volume of ethanol","male C57BL/6 J mice [2]; IA, 10 mg/kg p.o., 2 h",−37.54±18.17%
same,"Percent change from baseline, volume of ethanol","male C57BL/6 J mice [2]; IA, 10 mg/kg p.o., 4 h",−29.60±10.55 %
same,"Percent change from baseline, volume of ethanol","male C57BL/6 J mice [2]; IA, 10 mg/kg p.o., 24 h",−10.12±5.36%
same,"Percent change from baseline, volume of ethanol","male C57BL/6 J mice [2]; IA, 17 mg/kg p.o., 2 h",−66.39±10.30 %
same,"Percent change from baseline, volume of ethanol","male C57BL/6 J mice [2]; IA, 17 mg/kg p.o., 4 h",−44.07±9.06 %
same,"Percent change from baseline, volume of ethanol","male C57BL/6 J mice [2]; IA, 17 mg/kg p.o., 24 h",−15.30±4.81 %
same,"Percent change from baseline, volume of water","male C57BL/6 J mice [2]; IA, 3 mg/kg p.o., 2 h",46.78±40.53%
same,"Percent change from baseline, volume of water","male C57BL/6 J mice [2]; IA, 3 mg/kg p.o., 4 h",17.35±22.27%
same,"Percent change from baseline, volume of water","male C57BL/6 J mice [2]; IA, 3 mg/kg p.o., 24 h",−7.73±19.28%
same,"Percent change from baseline, volume of water","male C57BL/6 J mice [2]; IA, 10 mg/kg p.o., 2 h",55.56±45.39%
same,"Percent change from baseline, volume of water","male C57BL/6 J mice [2]; IA, 10 mg/kg p.o., 4 h",19.72±20.18%
same,"Percent change from baseline, volume of water","male C57BL/6 J mice [2]; IA, 10 mg/kg p.o., 24 h",9.05±18.21%
same,"Percent change from baseline, volume of water","male C57BL/6 J mice [2]; IA, 17 mg/kg p.o., 2 h",−26.90±22.63%
same,"Percent change from baseline, volume of water","male C57BL/6 J mice [2]; IA, 17 mg/kg p.o., 4 h",−9.62±13.96%
same,"Percent change from baseline, volume of water","male C57BL/6 J mice [2]; IA, 17 mg/kg p.o., 24 h",10.83±11.73%
same,"IA ethanol drinking (gram per kilogram), effect vs vehicle","male C57BL/6 J mice [2]; p.o., 4-h access period, 10 and 17 mg/kg most effective, not at 2 h",reduced ethanol drinking
same,mean plasma concentration at 4 h as % of the mean Cmax,[4]; 4 h,72%
same,mean plasma concentration at 24 h as % of the mean Cmax,[4]; 24 h,5%
same,AUC0–8,[4]; male C57BL/6 mice,"6,970 ng h/ml"
same,C max ± SD,[4]; male C57BL/6 mice,673 ± 50 ng/mL
same,Plasma concentration at 0.25 h,[4]; male C57BL/6 mice,538 ± 51 ng/mL
same,Plasma concentration ± SD at 1 h,[4]; male C57BL/6 mice,629 ± 61 ng/mL
same,Plasma concentration ± SD at 4 h,[4]; male C57BL/6 mice,487 ± 62 ng/mL
same,Plasma concentration ± SD at 24 h,[4]; male C57BL/6 mice,36.4 ± 33 ng/mL
same,T 1/2 (terminal half-life),[4]; male C57BL/6 mice,5.3 h
same,T max,[4]; male C57BL/6 mice,2 h
same,AUClast ± SD,"[4]; male C57BL/6 mice, Tlast=24 h","6,700±309 ng h/ml"
